# Source: patent publication US20160177395A1, “BIOMARKERS FOR THE PREDICTION OF RENAL INJURY” (priority 2007, published 2016)
# Several values for one entry are separate records, joined by “and”; a condition that tells them apart may be missing. Equal entries are not always repeated.
# Test system: kidney tissues of treated or untreated rats
# Assay: Real-time qRT-PCR of marker transcripts in kidney tissue panel, discovery stage (Table 22)
# Assay type: in vivo, rat
# Set-up: AI502869_DB71_seg0 normalized Real Time PCR expression: unit not given beside the values
# Conditions: rat kidney, listed as Cis
# Experimental: Before RT preparation the RNA was treated with DNA-free (Ambion, cat. No. AM1906) DNase treatment and removal—according to manufacturer protocol. DNase procedure was repeated until no DNA is detected in a PCR reaction using the RNA samples.
# The mixture is then incubated for 5 min at 65° C. and then quickly chilled on ice. Thereafter, 20 μl of 5× SuperscriptII first strand buffer (Invitrogen, Cat. No. Y00146), 9.6 μl 0.1M DTT (Invitrogen, Cat. No. Y00147) and 160 units RNasin (Promega, Cat. No. N251A) are added, and the mixture is incubated for 10 min at 25° C., followed by further incubation at 42° C. for 2 min. […] The resulting cDNA is diluted 1:20 in TE buffer (10 mM Tris pH=8, 1 mM EDTA pH=8).
# cDNA (5 μl), prepared as described above, is used as a template in Real-Time PCR reactions using the SYBR Green I assay (PE Applied Biosystem) with specific primers in 100 nM concentration if not indicated otherwise and UNG Enzyme (Eurogentech or equal) Amplification is effected as follows: 50° C. for 2 min, 95° C. for 10 min, and then 40 cycles of 95° C. for 15 sec, followed by 60° C. for 1 min (if not indicated otherwise). Amplification step is followed by dissociation step. Detection is performed by using the PE Applied Biosystem SDS 7000. The cycle in which the reactions achieved a threshold level (Ct) of fluorescence is registered and is used to calculate the relative transcript quantity in the RT reactions. Non-detected samples are assigned Ct value of 41 and are calculated accordingly. The relative quantity is calculated using the equation Q=efficiencŷ-Ct. The efficiency of the PCR reaction is calculated from a standard curve, created by using serial dilutions of several reverse transcription (RT) reactions. To minimize inherent differences in the RT reaction, the resulting relative quantities are normalized to normalization factor calculated as follows: […]
# The relative quantity (Q) of each housekeeping gene in each sample is calculated as described above. In order to calculate the “relative Q relative to MED” each Q for each HSKP gene is divided by the median quantity of this gene in all panel samples. To finally achieve the normalization factor of each sample the geometric mean of all four “relative Q relative to MED” was calculated. The normalization factor was then used for further calculations.
# The markers of the present invention were tested with regard to their expression in a panel of kidney tissues samples from treated and control rats. Unless otherwise noted, all experimental data relates to the novel polynucleotides and proteins of the present invention, named according to the segment being tested (as expression was tested through RT-PCR as described). Tests were then performed as described in the “Materials and Experimental Procedures” section above.
# The qRT-PCR measurements were normalized according to each samples normalization factor as described in “RT Preparation and Real-Time qRT-PCR Analysis” and further multiplied by a constant factor for ease of viewing.
# [1] = day5, individual animals (F and M)
# [2] = day28, individual animals (F and M)
smiles,measurement,setting,value
N.N.[Cl][Pt][Cl] [Cisplatin],AW919147_DB71_seg0 normalized Real Time PCR expression,"day1, individual animals",0.8 and 1.09 and 0.87 (2×) and 0.88
same,BI293562_DB71_seg2 normalized Real Time PCR expression,"day1, individual animals",0.74 and 0.5 and 0.38 and 0.7 and 0.39 and 0.71
same,H31045_DB71_seg5 normalized Real Time PCR expression,"day1, individual animals",0.24 and 0.28 and 0.22 and 0.82 and 0.21 and 1.22
same,H31799_DB71_seg23 normalized Real Time PCR expression,"day1, individual animals",1.03 and 1.09 and 1.22
same,H31883_DB71_seg13 normalized Real Time PCR expression,"day1, individual animals",2.03 and 0.74 and 0.71 and 1.52
same,H33998_DB71_seg19 normalized Real Time PCR,[1],1.79 and 1.84 and 1.95 and 1.49 and 0.46 and 2.14
same,MUSCYCG1R_DB81_seg15-17 normalized Real Time PCR,[1],3.12 and 3.59 and 2.07 and 2.31 and 0.92 and 2.34
same,RATLRFI_DB71_seg9 normalized Real Time PCR,[1],0.79 and 0.44 and 0.32 and 0.65 and 0.34 and 1.97
same,RATRAB13X_DB71_seg11-13 normalized Real Time PCR,[1],1.01 and 1.02 and 0.74
same,RNU24174_DB71_seg8 normalized Real Time PCR,[1],0.97 and 0.7 and 0.6 and 1.3 and 0.31 and 3.6
same,W41270_DB81_seg11 normalized Real Time PCR,[1],1.97 and 1.9 and 1.79 and 1.51 and 3.12
same,W64472_DB81_seg2 normalized Real Time PCR,[1],2.23 and 2.1 and 1.99 and 2.64 and 0.95 and 4.55
same,W83813_DB81_seg27 normalized Real Time PCR,[1],2.12 (2×) and 2.25 and 1.39 and 0.94 and 1.41
same,AA686189_DB71_seg6 normalized Real Time PCR expression,"day5, individual animals",0.93 and 0.76 and 1.5 and 0.69 and 4.48
same,AA799594_DB71_seg0 normalized Real Time PCR expression,"day5, individual animals",1.34 and 1.11 and 0.93 and 0.71 and 0.75
same,AA964541_DB71_seg0 normalized Real Time PCR expression,"day5, individual animals",0.99 and 0.74 and 0.76 and 1.94 and 0.67 and 4.8
same,AI045075_DB71_seg6 normalized Real Time PCR expression,"day5, individual animals",0.86 and 0.53 and 0.76 and 1.93 and 0.81 and 1.33
same,AI454051_DB71_seg0 normalized Real Time PCR expression,"day5, individual animals",1.43 and 1.39 and 0.92 and 0.86
same,AI502869_DB71_seg0 normalized Real Time PCR expression,"day5, individual animals",0.8 and 0.93 and 0.74 and 0.52 and 0.61
same,AW919147_DB71_seg0 normalized Real Time PCR expression,"day5, individual animals",1.39 and 0.83 and 0.8 and 0.88
same,BI293562_DB71_seg2 normalized Real Time PCR expression,"day5, individual animals",0.74 and 0.67 and 0.7 and 3.45 and 0.81 and 1.76
same,H31045_DB71_seg5 normalized Real Time PCR expression,"day5, individual animals",1.8 and 0.34 and 0.51 and 3.25 and 0.23 and 1.66
same,H31799_DB71_seg23 normalized Real Time PCR expression,"day5, individual animals",1.1 and 0.74 and 1.23 and 0.92
same,H31883_DB71_seg13 normalized Real Time PCR expression,"day5, individual animals",1.44 and 1.2 and 1.73 and 1.3 and 2.43
same,H33998_DB71_seg19 normalized Real Time PCR,[2],0.55 and 0.69 and 0.85 and 0.61 and 0.62 and 0.41
same,MUSCYCG1R_DB81_seg15-17 normalized Real Time PCR,[2],1.96 and 2.57 and 2.7 and 2.09 and 2.31 and 1.93
same,RATLRFI_DB71_seg9 normalized Real Time PCR,[2],2.33 and 3.05 and 3.8 and 3.03 and 2.4 and 2.26
same,RATRAB13X_DB71_seg11-13 normalized Real Time PCR,[2],1.62 and 1.78 and 1.57 and 1.24 and 1.31
same,RNU24174_DB71_seg8 normalized Real Time PCR,[2],8.38 and 12.63 and 12.14 and 10.21 and 7.3 and 8.08
same,W41270_DB81_seg11 normalized Real Time PCR,[2],1.45 (2×) and 1.8 and 1.48 and 1.94 and 1.11
same,W64472_DB81_seg2 normalized Real Time PCR,[2],1.81 and 3.16 and 2.87 and 2.8 and 3.04 and 1.65
same,W83813_DB81_seg27 normalized Real Time PCR,[2],0.71 and 0.7 and 0.78 and 0.51 (2×) and 0.57
same,AA686189_DB71_seg6 normalized Real Time PCR expression,"day28, individual animals",0 and 3.57 and 6.06 and 3.15 and 4.29 and 3.86
same,AA799594_DB71_seg0 normalized Real Time PCR expression,"day28, individual animals",0.74 and 0.64 and 0.52 and 0.36 and 0.97 and 0.62
same,AA964541_DB71_seg0 normalized Real Time PCR expression,"day28, individual animals",2.63 and 5.28 and 6.85 and 3.72 and 4.71 and 3.97
same,AI045075_DB71_seg6 normalized Real Time PCR expression,"day28, individual animals",2.17 and 3.09 and 3.37 and 3.18 and 2.72 and 1.57
same,AI454051_DB71_seg0 normalized Real Time PCR expression,"day28, individual animals",0.68 and 0.8 and 0.87 and 0.73 and 0.82 and 0.78
same,AI502869_DB71_seg0 normalized Real Time PCR expression,"day28, individual animals",1.03 (2×) and 0.74 and 1.35 and 0.95
same,AW919147_DB71_seg0 normalized Real Time PCR expression,"day28, individual animals",0.54 (2×) and 0.72 and 0.66 and 0.84
same,BI293562_DB71_seg2 normalized Real Time PCR expression,"day28, individual animals",5.98 and 12.27 and 8.01 and 6.24 and 2.93 and 3.33
same,H31045_DB71_seg5 normalized Real Time PCR expression,"day28, individual animals",0.73 (2×) and 0.81 and 0.88 and 2.92 and 2.96
same,H31799_DB71_seg23 normalized Real Time PCR expression,"day28, individual animals",1.15 and 0.98 and 0.88 and 0.9
same,H31883_DB71_seg13 normalized Real Time PCR expression,"day28, individual animals",2.72 and 4.07 and 3.83 and 2.41 and 3.37 and 2.23
